Laboratory results from patent US10842152B2, “Isothiazolo-based bicycles, processes for their preparation and their use as herbicides and/or plant growth regulators” (Bayer CropScience Aktiengesellschaft, priority 2017, dated 2020).

Key:
Amaranthus retroflexus [1] = assay: Herbicidal effect post-emergence; type: in vivo; conditions: 320 g/ha
How it was run: (§1)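 Greenhouse plants in sandy loam sprayed post-emergence at single-leaf stage (2-3 weeks after sowing) with WP or EC formulations plus 0.5% additive at 600 l water/ha. Damage scored visually after ca. 3 weeks versus untreated controls, 0% (as control) to 100% (dead).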

Setaria viridis [2] = assay: Herbicidal effect post-emergence; type: in vivo; conditions: 320 g/ha
How it was run: as §1

Viola tricolor [3] = assay: Herbicidal effect post-emergence; type: in vivo; conditions: 320 g/ha
How it was run: as §1

Alopecurus myosuroides = assay: Herbicidal effect pre-emergence; type: in vivo; conditions: 320 g/ha, visual grading after ca. 3 weeks vs untreated controls
How it was run: (§2)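 Pre-emergence: WP or EC formulations applied as aqueous suspension/emulsion with 0.5% additive at 600 l water/ha onto covering soil of freshly sown pots in sandy loam. Greenhouse under optimum conditions; visual damage scored after ca. 3 weeks versus untreated controls (100% = plants died, 0% = as control).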

Stellaria media [4] = assay: Herbicidal effect pre-emergence; type: in vivo; conditions: 320 g/ha, visual grading after ca. 3 weeks vs untreated controls
How it was run: as §2

Amaranthus retroflexus [5] = assay: Herbicidal effect pre-emergence; type: in vivo; conditions: 320 g/ha, visual grading after ca. 3 weeks vs untreated controls
How it was run: as §2

Setaria viridis [6] = assay: Herbicidal effect pre-emergence; type: in vivo; conditions: 320 g/ha, visual grading after ca. 3 weeks vs untreated controls
How it was run: as §2

Viola tricolor [7] = assay: Herbicidal effect pre-emergence; type: in vivo; conditions: 320 g/ha, visual grading after ca. 3 weeks vs untreated controls
How it was run: as §2

MATIN [8] = assay: Herbicidal effect pre-emergence; type: in vivo, Matricaria inodora; conditions: 320 g/ha, visual grading after ca. 3 weeks vs untreated controls
From the text: Seeds of mono- and dicotyledonous weed plants and crop plants are sown in wood-fiber pots in sandy loam and covered with soil. The compounds according to the invention, formulated in the form of wettable powders (WP) or as emulsifiable concentrates (EC), are then applied to the surface of the covering soil as aqueous suspension or emulsion, with the addition of 0.5% of an additive, at an application rate of 600 l of water/ha (converted).
Following treatment, the pots are placed in a greenhouse and kept under optimum growth conditions for the test plants. The visual grading of the damage to the test plants is carried out after ca. 3 weeks in comparison to untreated controls (herbicidal effect in percent (%): 100% effect=plants have died off, 0% effect=as control plants).

Nezara viridula = Nezara viridula spray test; type: in vivo; conditions: application rate 500 g/ha, after 4 days, barley plants
Protocol: (§3) Solvent: 78.0 parts by weight of acetone • • 1.5 parts by weight of dimethylformamide
(§4) Emulsifier: alkylarylpolyglycol ether
(§5) To produce a suitable preparation of active compound, 1 part by weight of active compound is mixed with the stated amount of solvent, and the concentrate is diluted with water, containing an emulsifier concentration of 1000 ppm, to the desired concentration. Further test concentrations are prepared by dilution with emulsifier containing water.
Barley plants (Hordeum vulgare) infested with larvae of the southern green stink bug (Nezara viridula) are sprayed with a test solution containing the desired concentration of the active ingredient.
After 4 days mortality in % is determined. 100% means all the stink bugs have been killed; 0% means none of the stink bugs have been killed.

Stellaria media [9] = assay: Herbicidal effect post-emergence; type: in vivo; conditions: 320 g/ha, visual grading after ca. 3 weeks (Table 7)
How it was run: as §1

Pharbitis purpurea = assay: Herbicidal effect post-emergence; type: in vivo; conditions: 320 g/ha, visual grading after ca. 3 weeks (Table 7)
How it was run: as §1

[10] = test system: Polygonum convolvulus (=Fallopia convolvulus); assay: Herbicidal effect post-emergence; type: in vivo; conditions: 320 g/ha, visual grading after ca. 3 weeks (Table 7)
How it was run: as §1

Nilaparvata lugens = Nilaparvata lugens spray test; type: in vivo; conditions: application rate 500 g/ha, after 4 days, rice plants
Protocol: as §3, §4
as §5, with “solvents” for “solvent,”, “and” for “and the concentrate”
Rice plants (Oryza sativa) are sprayed with a preparation of the active ingredient of the desired concentration and the plants are infested with the brown planthopper (Nilaparvata lugens).
After 4 days mortality in % is determined. 100% means all planthoppers have been killed and 0% means none of the planthoppers have been killed.

MATIN [11] = assay: Herbicidal effect post-emergence; type: in vivo, Matricaria inodora; conditions: 320 g/ha, visual grading after ca. 3 weeks (Table 7)
From the text: Seeds of mono- and dicotyledonous weed plants and crop plants are sown in wood-fiber pots in sandy loam, covered with soil and grown in a greenhouse under controlled growth conditions. 2 to 3 weeks after sowing, the test plants are sprayed in the single-leaf stage. The compounds according to the invention, formulated in form of wettable powders (WP) or as emulsifiable concentrates (EC), are then sprayed onto the green plant parts as aqueous suspension or emulsion, with the addition of 0.5% of an additive, at an application rate of 600 l of water/ha (converted). After the test plants had been in the greenhouse for ca. 3 weeks under optimum growth conditions, the effect of the preparations is assessed visually in comparison with untreated controls (herbicidal effect in percent (%): 100% effect=plants have died off, 0% effect=as control plants).

Abutilon theophrasti = assay: Herbicidal effect post-emergence; type: in vivo; conditions: 320 g/ha, visual grading after ca. 3 weeks (Table 8)
How it was run: as §1

Phaedon cochleariae = Phaedon cochleariae spray test; type: in vivo; conditions: application rate 500 g/ha, after 7 days, Chinese cabbage leaf disks
Protocol: as §3, §4
as §5, with “solvents” for “solvent,”, “and” for “and the concentrate”
Chinese cabbage (Brassica pekinensis) leaf disks are sprayed with a preparation of the active ingredient of the desired concentration. Once dry, the leaf disks are infested with mustard beetle larvae (Phaedon cochleariae).
After 7 days mortality in % is determined. 100% means all beetle larvae have been killed and 0% means none of the beetle larvae have been killed.

[12] = visual grading after ca. 3 weeks (Table 9)
[13] = visual grading after ca. 3 weeks (Table 7)
[14] = visual grading after ca. 3 weeks (Table 8)

Row | SMILES | herbicidal effect AMARE (Amaranthus retroflexus [1]; [12]) [%] | herbicidal effect SETVI (Setaria viridis [2]; [12]) [%] | herbicidal effect VIOTR (Viola tricolor [3]; [12]) [%] | herbicidal effect ALOMY (Alopecurus myosuroides) [%] | herbicidal effect STEME (Stellaria media [4]) [%] | herbicidal effect AMARE (Amaranthus retroflexus [5]) [%] | herbicidal effect SETVI (Setaria viridis [6]) [%] | herbicidal effect VIOTR (Viola tricolor [7]) [%] | herbicidal effect MATIN (MATIN [8]) [%] | mortality (Nezara viridula) [%] | mortality (Nilaparvata lugens) [%] | also measured
1 | CCC(=O)Nc1nsc2c(=O)n(CC3CCCCC3)cc(Br)c12 [Example I-078] | 100 | 100 | 80 | 100 | 100 | 100 | 100 | 100 | 100 | 90 | – | –
2 | Nc1nsc2c1CC(CO)N(CC1CCCCC1)C2=O (stereo not shown) [Example I-007] | – | – | – | – | – | 100 | 80 | 90 | – | – | 100 | herbicidal effect STEME (Stellaria media [9]): 100%; herbicidal effect AMARE (Amaranthus retroflexus [1]; [13]): 100%; herbicidal effect SETVI (Setaria viridis [2]; [13]): 100%; herbicidal effect PHBPU (Pharbitis purpurea): 100%; herbicidal effect VIOTR (Viola tricolor [3]; [13]): 100%; herbicidal effect POLCO [10]: 100%; herbicidal effect MATIN (MATIN [11]): 100%
3 | CC(=O)Nc1nsc2c(=O)n(CC3CCCCC3)cc(Cl)c12 [Example I-084] | – | – | – | 100 | 100 | 100 | 100 | 100 | 100 | – | – | herbicidal effect AMARE (Amaranthus retroflexus [1]; [14]): 100%; herbicidal effect SETVI (Setaria viridis [2]; [14]): 100%; herbicidal effect VIOTR (Viola tricolor [3]; [14]): 100%; herbicidal effect ABUTH (Abutilon theophrasti): 100%; mortality (Phaedon cochleariae): 83%
4 | COCC(=O)Nc1nsc2c(=O)n(CC3CCCCC3)cc(Br)c12 [Example I-087] | 100 | 100 | 100 | 100 | 100 | 100 | 100 | 100 | 90 | 90 | 100 | –
